Laboratory results published in US11427548B2 (Arvinas Operations, Inc., priority 2015, dated 2022).
Where two headings read alike, the source gives them in different places.

Legend:
Androgen Receptor [1] = molecular target: T1, Androgen Receptor (Homo sapiens, UniProt P10275+P40337, T878A); assay: Androgen Receptor ELISA assay (PathScan AR ELISA) in LNCaP cells: AR degradation, Dmax and DC50; assay type: cell-based; details: for DC50: concentration that caused 50% Androgen Receptor degradation
T1 construct: Compounds have been evaluated in this assay in LNCaP and/or VCaP cells utilizing similar protocols; endogenous in cells; host or cells: LNCaP cells
T1 sequence (P10275 whole entry T878A): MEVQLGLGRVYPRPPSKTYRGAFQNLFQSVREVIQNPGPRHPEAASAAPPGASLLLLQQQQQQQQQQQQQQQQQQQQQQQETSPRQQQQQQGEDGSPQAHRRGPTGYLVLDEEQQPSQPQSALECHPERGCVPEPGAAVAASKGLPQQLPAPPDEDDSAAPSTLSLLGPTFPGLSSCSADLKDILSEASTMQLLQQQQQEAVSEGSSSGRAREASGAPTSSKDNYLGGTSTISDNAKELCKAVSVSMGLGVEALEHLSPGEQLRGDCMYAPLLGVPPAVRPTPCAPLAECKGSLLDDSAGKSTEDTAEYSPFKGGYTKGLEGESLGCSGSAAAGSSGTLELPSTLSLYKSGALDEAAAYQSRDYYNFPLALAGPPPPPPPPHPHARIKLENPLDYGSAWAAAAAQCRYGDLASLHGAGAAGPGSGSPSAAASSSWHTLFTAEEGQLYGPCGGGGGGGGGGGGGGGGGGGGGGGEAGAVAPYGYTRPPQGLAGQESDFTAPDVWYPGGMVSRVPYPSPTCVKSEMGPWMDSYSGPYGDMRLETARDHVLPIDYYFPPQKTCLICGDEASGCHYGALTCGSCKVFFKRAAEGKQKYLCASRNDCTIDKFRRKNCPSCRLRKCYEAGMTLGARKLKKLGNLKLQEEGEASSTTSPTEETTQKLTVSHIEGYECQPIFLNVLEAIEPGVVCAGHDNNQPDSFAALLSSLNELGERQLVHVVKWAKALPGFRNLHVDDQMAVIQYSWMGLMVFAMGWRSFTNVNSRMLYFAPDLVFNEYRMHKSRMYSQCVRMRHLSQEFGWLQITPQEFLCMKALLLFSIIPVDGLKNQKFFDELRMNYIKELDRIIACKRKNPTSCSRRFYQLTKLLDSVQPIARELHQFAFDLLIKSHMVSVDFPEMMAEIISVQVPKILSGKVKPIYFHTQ
T1 sequence (P40337 whole entry): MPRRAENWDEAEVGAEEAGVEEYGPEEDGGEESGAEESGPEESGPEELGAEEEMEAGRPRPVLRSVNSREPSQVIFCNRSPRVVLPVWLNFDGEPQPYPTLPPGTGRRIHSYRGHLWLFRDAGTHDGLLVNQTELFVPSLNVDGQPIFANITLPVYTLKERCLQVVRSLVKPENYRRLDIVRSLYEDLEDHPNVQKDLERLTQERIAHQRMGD
T1 sequence (Q15369 whole entry partner): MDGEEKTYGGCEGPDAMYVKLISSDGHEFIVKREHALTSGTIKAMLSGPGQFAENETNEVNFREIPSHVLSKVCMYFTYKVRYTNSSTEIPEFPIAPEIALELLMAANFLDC
T1 sequence (Q15370 whole entry partner): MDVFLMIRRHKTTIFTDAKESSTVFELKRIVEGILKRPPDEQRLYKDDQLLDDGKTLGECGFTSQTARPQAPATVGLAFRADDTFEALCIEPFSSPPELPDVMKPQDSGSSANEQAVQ

Androgen Receptor [2] = molecular target: T2, Androgen Receptor (Homo sapiens, UniProt P10275); assay: Androgen Receptor ELISA assay (PathScan AR ELISA) in VCaP cells: AR degradation, Dmax and DC50; assay type: cell-based
T2 construct: endogenous in cells; host or cells: VCaP cells
T2 sequence (P10275 1-920): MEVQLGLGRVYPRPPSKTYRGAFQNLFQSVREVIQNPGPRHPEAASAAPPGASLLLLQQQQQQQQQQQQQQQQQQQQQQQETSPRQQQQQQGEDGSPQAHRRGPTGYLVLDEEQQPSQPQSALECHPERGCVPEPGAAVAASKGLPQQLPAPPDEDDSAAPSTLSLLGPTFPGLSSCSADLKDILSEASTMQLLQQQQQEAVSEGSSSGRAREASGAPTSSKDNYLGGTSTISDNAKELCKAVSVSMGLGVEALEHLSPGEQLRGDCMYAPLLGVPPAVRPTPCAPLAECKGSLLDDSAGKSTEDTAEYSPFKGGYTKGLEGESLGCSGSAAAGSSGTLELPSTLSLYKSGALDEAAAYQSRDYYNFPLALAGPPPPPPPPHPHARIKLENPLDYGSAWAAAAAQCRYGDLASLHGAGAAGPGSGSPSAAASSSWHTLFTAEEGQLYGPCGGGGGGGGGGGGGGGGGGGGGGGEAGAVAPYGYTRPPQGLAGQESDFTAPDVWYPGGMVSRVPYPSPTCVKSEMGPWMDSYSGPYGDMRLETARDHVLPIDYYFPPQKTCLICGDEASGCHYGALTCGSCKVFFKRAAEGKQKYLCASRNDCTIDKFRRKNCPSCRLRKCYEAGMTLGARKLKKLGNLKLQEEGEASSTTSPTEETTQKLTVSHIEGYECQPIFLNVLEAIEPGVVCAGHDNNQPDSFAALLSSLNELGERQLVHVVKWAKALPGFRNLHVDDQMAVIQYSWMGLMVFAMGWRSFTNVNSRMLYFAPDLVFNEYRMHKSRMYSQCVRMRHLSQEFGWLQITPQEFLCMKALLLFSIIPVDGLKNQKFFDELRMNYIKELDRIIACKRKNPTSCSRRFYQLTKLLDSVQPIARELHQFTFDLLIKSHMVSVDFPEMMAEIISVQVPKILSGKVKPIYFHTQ
Summary of the method: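 After 24 h exposure of VCaP cells (charcoal-stripped serum, 0.1 nM R1881 agonist, 0.1% DMSO) to seven half-log compound concentrations, residual AR in lysates was measured by PathScan ELISA (TMB absorbance, 450 nm). Cells were plated at 30,000/well and grown at least 3 days beforehand.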

[3] = highest percentage of Androgen Receptor degradation
[4] = VCaP cells; Table 35; read-out: VCaP DC50
[5] = VCaP, VCaP cells; Table 35; read-out: VCaP Dmax (%)
[6] = VCaP cells; Table 36; read-out: VCaP DC50
[7] = VCaP, VCaP cells; Table 36; read-out: VCaP Dmax (%)

Structure (SMILES): Cc1ncsc1-c1ccc(CNC(=O)C2C[C@@H](OC(C)(C)C)CN2C(=O)[C@H](C(C)C)N2Cc3ccccc3C2=O)c(OCCOCCOCCOc2ccc(N3C(=O)N(c4ccc(C#N)c(C(F)(F)F)c4)C(=O)C3(C)C)cc2)c1 (stereo partly drawn) [Example 234]
- DC50 (Androgen Receptor [1]): 0.051 to 0.5 µM
- Dmax (Androgen Receptor [1]; [3]): 26 to 50%

Structure (SMILES): Cc1ncsc1-c1ccc(CNC(=O)[C@@H]2C[C@@H](O)CN2C(=O)[C@@H](NC(=O)COCCOCCNC(=O)CCCc2ccc(N3C(=S)N(c4ccc(C#N)c(C(F)(F)F)c4)C(=O)C3(C)C)cc2)C(C)(C)C)cc1 [Example 62, (2S,4R)-1-((S)-2-tert-butyl-16-(4-(3-(4-cyano-3-(trifluoromethyl)phenyl)-5,5-dimethyl-4-oxo-2-thioxoimidazolidin-1-yl)phenyl)-4,13-dioxo-6,9-dioxa-3,12-diazahexadecane)-4-hydroxy-N-(4-(4-methylthiazol-5-yl)benzyl)pyrrolidine-2-carboxamide]
- DC50 (Androgen Receptor [1]): > 0.501 µM
- Dmax (Androgen Receptor [1]; highest percentage of Androgen Receptor degradation observed): 51 to 70%

Structure (SMILES): Cc1ncsc1-c1ccc(CNC(=O)[C@@H]2C[C@@H](O)CN2C(=O)[C@@H](NC(=O)CCCCCOCCCCOCCCCOc2ccc(N3C(=S)N(c4ccc(C#N)c(C(F)(F)F)c4)C(=O)C3(C)C)cc2)C(C)(C)C)cc1 [Example 227]
- DC50 (Androgen Receptor [1]): < 0.05 µM
- Dmax (Androgen Receptor [1]; [3]): 26 to 50%

Structure (SMILES): Cc1ncsc1-c1ccc(CNC(=O)[C@@H]2C[C@@H](O)CN2C(=O)[C@H](C(C)C)N2Cc3ccccc3C2=O)c(OCCOCCOCCCCCOCCOCCOc2ccc(N3C(=S)N(c4ccc(C#N)c(C(F)(F)F)c4)C(=O)C3(C)C)cc2)c1 [Example 218]
- Dmax (Androgen Receptor [1]; [3]): 26 to 50%

Structure (SMILES): Cc1ncsc1-c1ccc([C@@H](CN)NC(=O)[C@@H]2C[C@@H](O)CN2C(=O)[C@@H](NC(=O)COCCCCCOc2ccc(C(=O)N[C@H]3C(C)(C)[C@H](Oc4ccc(C#N)c(Cl)c4)C3(C)C)cc2)C(C)(C)C)cc1 [Example 474]
- DC50 (Androgen Receptor [2]; [4]): < 0.05 µM
- Dmax (Androgen Receptor [2]; [5]): 26 to 50%

Structure (SMILES): Cc1ncsc1-c1ccc([C@H](C)NC(=O)[C@@H]2C[C@@H](O)CN2C(=O)[C@H](C(C)C)n2cc(-c3ccnc(OC4CN(c5ncc(C(=O)NC6C(C)(C)C(Oc7ccc(C#N)c(Cl)c7)C6(C)C)cn5)C4)c3)cn2)cc1 (stereo partly drawn) [Example 604, N-(3-(3-chloro-4-cyanophenoxy)-2,2,4,4-tetramethylcyclobutyl)-2-(3-((4-(1-((S)-1-((2S,4R)-4-hydroxy-2-(((S)-1-(4-(4-methylthiazol-5-yl)phenyl)ethyl)carbam-oyl)pyrrolidin-1-yl)-3-methyl-1-oxobutan-2-yl)-1H-pyrazol-4-yl)pyridin-2-yl)oxy)azetidin-1-yl)pyrimidine-5-carboxamide]
- DC50 (Androgen Receptor [2]; [6]): < 0.05 µM
- Dmax (Androgen Receptor [2]; VCaP, read-out: VCaP Dmax (%), VCaP cells; Table 36): 51 to 70%

Structure (SMILES): C[C@H](NC(=O)C1C[C@@H](O)CN1C(=O)[C@@H](NC(=O)COCCCCCc1ccc(C(=O)N[C@H]2C(C)(C)[C@H](Oc3ccc(C#N)c(Cl)c3)C2(C)C)cc1)C(C)(C)C)c1ccc(Cl)cc1 (stereo partly drawn) [Example 740, (2S,4R)-1-((S)-2-(2-((5-(4-(((1r,3r)-3-(3-chloro-4-cyanophenoxy)-2,2,4,4-tetramethylcyclobutyl)carbamoyl)phenyl)pentyl)oxy)acetamido)-3,3-dimethylbutanoyl)-N-((S)-1-(4-chlorophenyl)ethyl)-4-hydroxypyrroldiine-2-carboxamide]
- DC50 (Androgen Receptor [2]; [6]): < 0.05 µM
- Dmax (Androgen Receptor [2]; [7]): 51 to 70%

Structure (SMILES): CC(C)(C)[C@H](NC(=O)COCCCCOc1ccc(-c2ccc(N3C(=S)N(c4ccc(C#N)c(F)c4)C(=O)C3(C)C)cc2)cc1)C(=O)N1C[C@H](O)C[C@H]1C(=O)NCc1ccc(-c2cnco2)cc1 [Example 126, (2S,4R)-1-[(2S)-2-{2-[4-(4-{4-[3-(4-cyano-3-fluorophenyl)-5,5-dimethyl-4-oxo-2-sulfanylideneimidazolidin-1-yl]phenyl}phen-oxy)butoxy]acetamido}-3,3-dimethylbutanoyl]-4-hydroxy-N-{[4-(1,3-oxazol-5-yl)phenyl]methyl}pyrrolidine-2-carboxamide]
- Dmax (Androgen Receptor [2]; VCaP, highest percentage of Androgen Receptor degradation observed, VCaP cells (Table 32); read-out: VCaP Dmax (%)): 51 to 70%
- DC50 (Androgen Receptor [2]; concentration that caused 50% Androgen Receptor degradation, VCaP cells (Table 32); read-out: VCaP DC50): < 0.05 µM

Structure (SMILES): Cc1ncsc1-c1ccc([C@H](C)NC(=O)[C@@H]2C[C@@H](O)CN2C(=O)[C@@H](NC(=O)CCCN(C)[C@H](C(=O)N[C@H](C(=O)N(C)CCOc2ccc(N3C(=S)N(c4ccc(C#N)c(C(F)(F)F)c4)C(=O)C3(C)C)cc2)C(C)C)C(C)C)C(C)(C)C)cc1 [Example 714, (2S,4R)-1-((5S,8S,15S)-15-(tert-butyl)-1-(4-(3-(4-cyano-3-(trifluoromethyl)phenyl)-5,5-dimethyl-4-oxo-2-thioxoimidazolidin-1-yl)phenoxy)-5,8-diisopropyl-3,9-dimethyl-4,7,13-trioxo-3,6,9,14-tetraazahexadecan-16-oyl)-4-hydroxy-N-((S)-1-(4-(4-methylthiazol-5-yl)phenyl)ethyl)pyrrolidine-2-carboxamide]
- Dmax (Androgen Receptor [2]; VCaP, read-out: VCaP Dmax (%)): < 25%
- DC50 (Androgen Receptor [2]; read-out: VCaP DC50; VCaP cells; Table 36): > 0.501 µM

Structure (SMILES): CC(C)c1ncsc1-c1ccc(CNC(=O)[C@@H]2C[C@@H](O)CN2C(=O)[C@@H](NC(=O)COCCCCCNc2ccc(C(=O)N[C@H]3C(C)(C)[C@H](Oc4ccc(C#N)c(Cl)c4)C3(C)C)cc2)C(C)(C)C)cc1 [Example 556]
- DC50 (Androgen Receptor [2]; [4]): < 0.05 µM
- Dmax (Androgen Receptor [2]; [5]): > 71%

Structure (SMILES): CC(C)(C)[C@H](NC(=O)COCCCCCNc1ccc(C(=O)N[C@H]2C(C)(C)[C@H](Oc3ccc(C#N)c(Cl)c3)C2(C)C)cc1)C(=O)N1C[C@H](O)C[C@H]1C(=O)NCc1ccc(-c2scnc2N)cc1 [Example 503]
- DC50 (Androgen Receptor [2]; [4]): < 0.05 µM
- Dmax (Androgen Receptor [2]; [5]): > 71%

Structure (SMILES): Cc1ncsc1-c1ccc(CNC(=O)[C@@H]2C[C@@H](O)CN2C(=O)[C@@H](NC(=O)COCCN2CCN(c3ccc(C(=O)N[C@H]4C(C)(C)[C@H](Oc5ccc(C#N)c(Cl)c5)C4(C)C)cn3)CC2)C(C)(C)C)cc1 [Example 638]
- DC50 (Androgen Receptor [2]; [6]): < 0.05 µM
- Dmax (Androgen Receptor [2]; [7]): > 71%

Structure (SMILES): Cc1ncsc1-c1ccc(CNC(=O)[C@@H]2C[C@@H](O)CN2C(=O)[C@@H](NC(=O)COCC2CCN(c3ccc(-c4ccc(N5C(=S)N(c6ccc(C#N)c(C(F)(F)F)c6)C(=O)C5(C)C)cc4)cn3)CC2)C(C)(C)C)cc1 [Example 420]
- Dmax (Androgen Receptor [2]; VCaP, read-out: VCaP Dmax (%)): 51 to 70%
- DC50 (Androgen Receptor [2]; read-out: VCaP DC50; VCaP cells; Table 35): 0.051 to 0.5 µM

Structure (SMILES): Cc1ncsc1-c1ccc(CNC(=O)[C@@H]2C[C@@H](O)CN2C(=O)C(NC(=O)COCCN2CCN(c3ccc(C(=O)N[C@H]4C(C)(C)[C@H](Oc5ccc(C#N)c(C(F)(F)F)c5)C4(C)C)cn3)C(=O)C2)C(C)(C)C)cc1 (stereo partly drawn) [Example 703]
- DC50 (Androgen Receptor [2]; [6]): > 0.501 µM
- Dmax (Androgen Receptor [2]; [7]): < 25%

Structure (SMILES): Cn1nccc1-c1ccc(CNC(=O)[C@@H]2C[C@@H](O)CN2C(=O)[C@@H](NC(=O)COCCCOCCCCOc2ccc(N3C(=S)N(c4ccc(C#N)c(Cl)c4)C(=O)C3(C)C)cc2F)C(C)(C)C)cc1 [Example 50, (2S,4R)-1-[(2S)-2-{2-[3-(4-{4-[3-(3-chloro-4-cyanophenyl)-5,5-dimethyl-4-oxo-2-sulfanylideneimidazolidin-1-yl]-2-fluorophenoxy}butoxy)propoxy]acetamido}-3,3-dimethylbutanoyl]-4-hydroxy-N-{[4-(1-methyl-1H-pyrazol-5-yl)phenyl]methyl}pyrrolidine-2-carboxamide]
- Dmax (Androgen Receptor [2]; VCaP, read-out: VCaP Dmax (%)): > 71%
- DC50 (Androgen Receptor [2]; read-out: VCaP DC50; concentration that caused 50% Androgen Receptor degradation, VCaP cells): < 0.05 µM

Structure (SMILES): C[C@H](NC(=O)[C@@H]1C[C@@H](O)CN1C(=O)[C@@H](NC(=O)COCCCCOc1ccc(C(=O)N[C@H]2C(C)(C)[C@H](Oc3ccc(C#N)c(Cl)c3)C2(C)C)cc1)C(C)(C)C)c1ccc(-c2nncs2)cc1 [Example 570]
- DC50 (Androgen Receptor [2]; [4]): < 0.05 µM
- Dmax (Androgen Receptor [2]; [5]): > 71%

Structure (SMILES): CC(C)(C)[C@H](NC(=O)COCCOc1ccc(-c2ccc(C(=O)N[C@H]3C(C)(C)[C@H](Oc4ccc(C#N)c(Cl)c4)C3(C)C)cc2)cc1)C(=O)N1C[C@H](O)C[C@H]1C(=O)NCc1ccc(Cl)cc1 [Example 573]
- DC50 (Androgen Receptor [2]; [4]): > 0.501 µM
- Dmax (Androgen Receptor [2]; [5]): 51 to 70%
